{"source": "patent US20200131156A1", "about": "“ARYLSULFONYLPYROLECARBOXAMIDE DERIVATIVES AS Kv3 POTASSIUM CHANNEL ACTIVATORS” (H. Lundbeck A/S, priority 2018, published 2020)", "target": "T1, hKv3.1b (Homo sapiens, UniProt P48547)", "T1 construct": "expressed in transfected cells", "T1 sequence (P48547 1-585 isoform P48547-2)": "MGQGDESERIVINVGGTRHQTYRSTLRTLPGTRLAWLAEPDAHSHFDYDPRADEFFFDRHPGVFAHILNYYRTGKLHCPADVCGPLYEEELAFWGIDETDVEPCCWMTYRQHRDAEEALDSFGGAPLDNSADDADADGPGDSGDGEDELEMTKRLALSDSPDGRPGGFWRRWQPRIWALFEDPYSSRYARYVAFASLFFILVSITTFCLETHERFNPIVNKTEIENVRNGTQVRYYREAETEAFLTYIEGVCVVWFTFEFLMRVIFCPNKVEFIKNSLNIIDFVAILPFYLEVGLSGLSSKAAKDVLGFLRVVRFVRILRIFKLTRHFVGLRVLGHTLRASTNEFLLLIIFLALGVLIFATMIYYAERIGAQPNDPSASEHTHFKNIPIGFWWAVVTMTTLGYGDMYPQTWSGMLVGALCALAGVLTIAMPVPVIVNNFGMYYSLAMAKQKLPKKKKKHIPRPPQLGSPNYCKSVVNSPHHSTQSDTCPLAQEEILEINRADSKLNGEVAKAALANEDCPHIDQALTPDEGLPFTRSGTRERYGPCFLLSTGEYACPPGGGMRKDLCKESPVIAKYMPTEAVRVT", "assay": "Automated patch clamp (QPatch-16x) on HEK-293 cells stably expressing hKv3.1b", "assay_type": "cell-based", "details": "for ECdelta5 mV: concentration needed to shift the activation threshold 5 mV; for Threshold Shift: maximum absolute hyperpolarizing shift of activation threshold at tested concentrations 0.37-30 μM", "how_it_was_run": "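Whole-cell automated patch clamp, extracellular pH 7.4, 4 mM Na2ATP intracellular; holding −80 mV, 200 ms steps −70 to +10 mV. Five ascending concentrations (0.37–30 μM) per cell, ~3 min each, 0.33% DMSO vehicle. Activation threshold (5% of vehicle peak at 10 mV) shift fitted sigmoidally; ECdelta5 mV read from curve.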", "data": [{"smiles": "Cc1ccc(S(=O)(=O)n2ccc(C(=O)NCc3cccc(C)n3)c2)cc1", "note": "[Compound 15, N-[(6-methyl-2-pyridyl)methyl]-1-(p-tolylsulfonyl)pyrrole-3-carboxamide]", "values": [{"measurement": "ECdelta5 mV", "result": 1700, "unit": "nM"}, {"measurement": "Threshold Shift", "result": 14, "unit": "mV"}]}, {"smiles": "Cc1ccc(S(=O)(=O)n2ccc(C(=O)NCc3cnc(C)nc3)c2)cc1", "note": "[Compound 2, N-[(2-methylpyrimidin-5-yl)methyl]-1-(p-tolylsulfonyl)pyrrole-3-carboxamide]", "values": [{"measurement": "ECdelta5 mV", "result": 750, "unit": "nM"}, {"measurement": "Threshold Shift", "result": 40, "unit": "mV"}]}, {"smiles": "Cc1cnc(CNC(=O)c2ccn(S(=O)(=O)c3ccc(F)c(Cl)c3)c2)cn1", "note": "[Compound 92, 1-(3-chloro-4-fluorobenzene-1-sulfonyl)-N-[(5-methylpyrazin-2-yl)methyl]-1H-pyrrole-3-carboxamide]", "values": [{"measurement": "ECdelta5 mV", "result": 3400, "unit": "nM"}, {"measurement": "Threshold Shift", "result": 12, "unit": "mV"}]}, {"smiles": "Cc1ccccc1S(=O)(=O)n1ccc(C(=O)NCc2cnn(C)c2)c1", "note": "[Compound 76, 1-(2-methylbenzene-1-sulfonyl)-N-[(1-methyl-1H-pyrazol-4-yl)methyl]-1H-pyrrole-3-carboxamide]", "values": [{"measurement": "ECdelta5 mV", "result": 3600, "unit": "nM"}, {"measurement": "Threshold Shift", "result": 17, "unit": "mV"}]}, {"smiles": "Cc1ccc(S(=O)(=O)n2ccc(C(=O)NCc3ncccc3C)c2)cc1", "note": "[Compound 17, N-[(3-methyl-2-pyridyl)methyl]-1-(p-tolylsulfonyl)pyrrole-3-carboxamide]", "values": [{"measurement": "ECdelta5 mV", "result": 2300, "unit": "nM"}, {"measurement": "Threshold Shift", "result": 16, "unit": "mV"}]}, {"smiles": "COc1ccc(CNC(=O)c2ccn(S(=O)(=O)c3ccc(C)cc3)c2)nc1", "note": "[Compound 18, N-[(5-methoxy-2-pyridyl)methyl]-1-(p-tolylsulfonyl) pyrrole-3-carboxamide]", "values": [{"measurement": "ECdelta5 mV", "result": 3500, "unit": "nM"}, {"measurement": "Threshold Shift", "result": 10, "unit": "mV"}]}, {"smiles": "Cc1noc(CNC(=O)c2ccn(S(=O)(=O)c3ccc(F)cc3)c2)n1", "note": "[Compound 65, 1-(4-fluorobenzene-1-sulfonyl)-N-[(3-methyl-1,2,4-oxadiazol-5-yl)methyl]-1H-pyrrole-3-carboxamide]", "values": [{"measurement": "ECdelta5 mV", "result": 4200, "unit": "nM"}, {"measurement": "Threshold Shift", "result": 14, "unit": "mV"}]}, {"smiles": "Cc1cnc(CNC(=O)c2ccn(S(=O)(=O)c3c(C)cc(F)cc3C)c2)cn1", "note": "[Compound 99, 1-(4-fluoro-2,6-dimethyl-phenyl)sulfonyl-N-[(5-methylpyrazin-2-yl)methyl]pyrrole-3-carboxamide]", "values": [{"measurement": "ECdelta5 mV", "result": 1900, "unit": "nM"}, {"measurement": "Threshold Shift", "result": 21, "unit": "mV"}]}, {"smiles": "Cc1ccc(S(=O)(=O)n2ccc(C(=O)NCc3cnccn3)c2)cc1", "note": "[Compound 29, 1-(p-tolylsulfonyl)-N-(pyrazin-2-ylmethyl) pyrrole-3-carboxamide]", "values": [{"measurement": "ECdelta5 mV", "result": 1300, "unit": "nM"}, {"measurement": "Threshold Shift", "result": 31, "unit": "mV"}]}, {"smiles": "Cc1ccc(S(=O)(=O)n2ccc(C(=O)NCc3ccc(C)nn3)c2)cc1", "note": "[Compound 3, N-[(6-methylpyridazin-3-yl)methyl]-1-(p-tolylsulfonyl)pyrrole-3-carboxamide]", "values": [{"measurement": "ECdelta5 mV", "result": 1100, "unit": "nM"}, {"measurement": "Threshold Shift", "result": 25, "unit": "mV"}]}, {"smiles": "Cc1ccc(S(=O)(=O)n2ccc(C(=O)NCc3ccno3)c2)cc1", "note": "[Compound 53, 1-(4-methylbenzene-1-sulfonyl)-N-[(1,2-oxazol-5-yl)methyl]-1H-pyrrole-3-carboxamide]", "values": [{"measurement": "ECdelta5 mV", "result": 2300, "unit": "nM"}, {"measurement": "Threshold Shift", "result": 15, "unit": "mV"}]}, {"smiles": "COc1ccc(S(=O)(=O)n2ccc(C(=O)NCc3cnc(C)cn3)c2)cc1F", "note": "[Compound 97, 1-(3-fluoro-4-methoxy-phenyl)sulfonyl-N-[(5-methylpyrazin-2-yl)methyl]pyrrole-3-carboxamide]", "values": [{"measurement": "ECdelta5 mV", "result": 3200, "unit": "nM"}, {"measurement": "Threshold Shift", "result": 18, "unit": "mV"}]}, {"smiles": "Cc1ccc(S(=O)(=O)n2ccc(C(=O)NCc3cc(C)no3)c2)cc1", "note": "[Compound 35, N-[(3-methylisoxazol-5-yl)methyl]-1-(p-tolylsulfonyl) pyrrole-3-carboxamide]", "values": [{"measurement": "ECdelta5 mV", "result": 1100, "unit": "nM"}, {"measurement": "Threshold Shift", "result": 21, "unit": "mV"}]}, {"smiles": "COc1ncc(CNC(=O)c2ccn(S(=O)(=O)c3ccc(C)cc3F)c2)cn1", "note": "[Compound 110, 1-(2-fluoro-4-methylbenzene-1-sulfonyl)-N-[(2-methoxypyrimidin-5-yl)methyl]-1H-pyrrole-3-carboxamide]", "values": [{"measurement": "ECdelta5 mV", "result": 1300, "unit": "nM"}, {"measurement": "Threshold Shift", "result": 24, "unit": "mV"}]}, {"smiles": "Cc1cccc(S(=O)(=O)n2ccc(C(=O)NCc3nc(C)no3)c2)c1", "note": "[Compound 61, 1-(3-methylbenzene-1-sulfonyl)-N-[(3-methyl-1,2,4-oxadiazol-5-yl)methyl]-1H-pyrrole-3-carboxamide]", "values": [{"measurement": "ECdelta5 mV", "result": 5900, "unit": "nM"}, {"measurement": "Threshold Shift", "result": 12, "unit": "mV"}]}, {"smiles": "Cc1ccc(S(=O)(=O)n2ccc(C(=O)NCc3ncc(C)o3)c2)cc1", "note": "[Compound 33, N-[(5-methyloxazol-2-yl)methyl]-1-(p-tolylsulfonyl)pyrrole-3-carboxamide]", "values": [{"measurement": "ECdelta5 mV", "result": 2200, "unit": "nM"}, {"measurement": "Threshold Shift", "result": 15, "unit": "mV"}]}, {"smiles": "Cc1ccc(S(=O)(=O)n2ccc(C(=O)NCc3coc(C)n3)c2)cc1", "note": "[Compound 47, 1-(4-methylbenzene-1-sulfonyl)-N-[(2-methyl-1,3-oxazol-4-yl)methyl]-1H-pyrrole-3-carboxamide]", "values": [{"measurement": "ECdelta5 mV", "result": 2300, "unit": "nM"}, {"measurement": "Threshold Shift", "result": 12, "unit": "mV"}]}, {"smiles": "Cc1cnc(CNC(=O)c2ccn(S(=O)(=O)c3cccc(C)c3)c2)nc1", "note": "[Compound 62, 1-(3-methylbenzene-1-sulfonyl)-N-[(5-methylpyrimidin-2-yl)methyl]-1H-pyrrole-3-carboxamide]", "values": [{"measurement": "ECdelta5 mV", "result": 4900, "unit": "nM"}, {"measurement": "Threshold Shift", "result": 12, "unit": "mV"}]}, {"smiles": "CNc1cnc(CNC(=O)c2ccn(S(=O)(=O)c3ccc(OC(F)F)cc3)c2)cn1", "note": "[Compound 107, 1-[4-(difluoromethoxy)benzene-1-sulfonyl]-N-{[5-(methylamino)pyrazin-2-yl]methyl}-1H-pyrrole-3-carboxamide]", "values": [{"measurement": "ECdelta5 mV", "result": 1800, "unit": "nM"}, {"measurement": "Threshold Shift", "result": 36, "unit": "mV"}]}, {"smiles": "Cc1cnc(CNC(=O)c2ccn(S(=O)(=O)c3ccccc3C)c2)cn1", "note": "[Compound 28, N-[(5-methylpyrazin-2-yl)methyl]-1-(o-tolylsulfonyl) pyrrole-3-carboxamide]", "values": [{"measurement": "ECdelta5 mV", "result": 1500, "unit": "nM"}, {"measurement": "Threshold Shift", "result": 27, "unit": "mV"}]}, {"smiles": "COc1ccc(S(=O)(=O)n2ccc(C(=O)NCc3cc(C)no3)c2)cc1", "note": "[Compound 71, 1-(4-methoxybenzene-1-sulfonyl)-N-[(3-methyl-1,2-oxazol-5-yl)methyl]-1H-pyrrole-3-carboxamide]", "values": [{"measurement": "ECdelta5 mV", "result": 1800, "unit": "nM"}, {"measurement": "Threshold Shift", "result": 19, "unit": "mV"}]}, {"smiles": "COc1ncc(CNC(=O)c2ccn(S(=O)(=O)c3ccc(OC(F)F)cc3)c2)cn1", "note": "[Compound 112, 1-[4-(difluoromethoxy)benzene-1-sulfonyl]-N-[(2-methoxypyrimidin-5-yl)methyl]-1H-pyrrole-3-carboxamide]", "values": [{"measurement": "ECdelta5 mV", "result": 4100, "unit": "nM"}, {"measurement": "Threshold Shift", "result": 17, "unit": "mV"}]}, {"smiles": "COc1ccc(S(=O)(=O)n2ccc(C(=O)NCc3cnc(C)cn3)c2)cc1", "note": "[Compound 7, 1-(4-methoxyphenyl)sulfonyl-N-[(5-methylpyrazin-2-yl)methyl]pyrrole-3-carboxamide]", "values": [{"measurement": "ECdelta5 mV", "result": 1300, "unit": "nM"}, {"measurement": "Threshold Shift", "result": 33, "unit": "mV"}]}, {"smiles": "Cc1ccc(S(=O)(=O)n2cc(C(=O)NCc3cnc(C)cn3)cc2F)cc1", "note": "[Compound 87, 5-fluoro-1-(4-methylbenzene-1-sulfonyl)-N-[(5-methylpyrazin-2-yl)methyl]-1H-pyrrole-3-carboxamide]", "values": [{"measurement": "ECdelta5 mV", "result": 4000, "unit": "nM"}, {"measurement": "Threshold Shift", "result": 15, "unit": "mV"}]}, {"smiles": "Cc1ccc(S(=O)(=O)n2ccc(C(=O)NCc3nncs3)c2)cc1", "note": "[Compound 56, 1-(4-methylbenzene-1-sulfonyl)-N-[(1,3,4-thiadiazol-2-yl)methyl]-1H-pyrrole-3-carboxamide]", "values": [{"measurement": "ECdelta5 mV", "result": 6800, "unit": "nM"}, {"measurement": "Threshold Shift", "result": 14, "unit": "mV"}]}, {"smiles": "Cc1ccc(S(=O)(=O)n2ccc(C(=O)NCc3nc(C)no3)c2)cc1", "note": "[Compound 43, N-[(3-methyl-1,2,4-oxadiazol-5-yl)methyl]-1-(p-tolylsulfonyl)pyrrole-3-carboxamide]", "values": [{"measurement": "ECdelta5 mV", "result": 1700, "unit": "nM"}, {"measurement": "Threshold Shift", "result": 23, "unit": "mV"}]}, {"smiles": "Cc1cnc(CNC(=O)c2ccn(S(=O)(=O)c3ccc4c(c3)CCO4)c2)cn1", "note": "[Compound 102, 1-(2,3-dihydrobenzofuran-5-ylsulfonyl)-N-[(5-methylpyrazin-2-yl)methyl]pyrrole-3-carboxamide]", "values": [{"measurement": "ECdelta5 mV", "result": 1400, "unit": "nM"}, {"measurement": "Threshold Shift", "result": 32, "unit": "mV"}]}, {"smiles": "Cc1ccc(CNC(=O)c2ccn(S(=O)(=O)c3ccc(F)cc3)c2)cn1", "note": "[Compound 85, 1-(4-fluorobenzene-1-sulfonyl)-N-[(6-methylpyridin-3-yl)methyl]-1H-pyrrole-3-carboxamide]", "values": [{"measurement": "ECdelta5 mV", "result": 3100, "unit": "nM"}, {"measurement": "Threshold Shift", "result": 18, "unit": "mV"}]}]}
